Patent US5389661A, “Imidazole and 1,2,4-triazole derivatives with angiotensin II antagonist properties” (Warner-Lambert Company, priority 1994, dated 1995)

target: T1, angiotensin II receptor (rat liver membranes) (Rattus norvegicus, UniProt P25095); assay: RBAT1, Receptor Binding of Angiotensin II: inhibition of tritiated angiotensin II binding to rat liver membranes; details: in vitro
T1 construct: from tissue; host or cells: rat liver membranes
T1 sequence (P25095 1-359): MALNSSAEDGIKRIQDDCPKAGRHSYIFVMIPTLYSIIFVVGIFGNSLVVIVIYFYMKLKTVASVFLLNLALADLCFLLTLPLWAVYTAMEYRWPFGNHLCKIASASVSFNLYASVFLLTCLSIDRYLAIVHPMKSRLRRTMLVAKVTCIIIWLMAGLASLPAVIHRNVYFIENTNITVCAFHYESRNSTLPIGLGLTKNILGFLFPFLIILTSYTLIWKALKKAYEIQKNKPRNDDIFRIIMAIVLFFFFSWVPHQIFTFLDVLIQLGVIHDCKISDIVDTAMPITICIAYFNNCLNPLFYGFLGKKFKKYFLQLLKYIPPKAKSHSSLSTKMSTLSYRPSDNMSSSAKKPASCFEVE
Procedure: The effectiveness of the compounds of the instant invention is determined by a test (RBAT1) entitled Receptor Binding of Angiotensin II.

IC50 [µM]	Compound
0.3	CCCc1ncc(/C=C2\C(=O)N(C(CCC)C(=O)OCC)c3cccc(C)c32)n1Cc1ccc(C(=O)OC)cc1 (racemic) [Example 4I, Ethyl (Z)-(±)-2,3,dihydro-3-[[3-[[4-(methoxycarbonylphenyl]methyl]-2-propyl-3H-imidazol-4-yl]methylene]-4-methyl-2-oxo-α-propyl-1H-indole-1-acetat]
0.053	CCCCc1ncc(CC2C(=O)Nc3ccccc32)n1Cc1ccc(C(=O)OC)cc1 (racemic) [Example 10, Benzoic acid, 4-[[2-butyl-5-[(2,3-dihydro-2-oxo-1H-indol-3-yl)methyl]-1H-imidazol-1-yl]methyl]-, methyl ester, (±)]
0.075	CCCc1ncc(C=C2C(=O)N(C)c3ccccc32)n1Cc1ccc(C(=O)OC)cc1 [Example 1D, Methyl 4-[[2-propyl-5-[(1,2-dihydro-1-methyl-2-oxo-3H-indol-3-ylidene)methyl]-1H-imidazol-1-yl]methyl]benzoate]
0.61	CCCc1ncc(C=C2C(=O)N(C(=O)NC)c3ccccc32)n1Cc1ccc(C(=O)OC)cc1 [Example 2B, Methyl 4-[[(2-propyl-5-[1,2-dihydro-1-(methylaminocarbonyl)-2-oxo-3H-indol-3-ylidene]methyl]-1H-imidazol-1-yl]methyl benzoate]
0.201	CCCCc1ncc(C=C2C(=O)N(O)c3ccccc32)n1Cc1ccc(C(=O)OC)cc1 [Example 2C]
0.086	CCCc1nc(-n2cccc2)c(/C=C2/C(=O)Nc3ccccc32)n1Cc1ccc(C(=O)O)cc1 [Example 2D, (E)-4-[[5-[(1,2-dihydro-2-oxo-3H-indol-3-ylideny)methyl]-2-propyl-4-(1H-pyrrol-1-yl)-1H-imidazol-1-yl]methyl]benzoic acid]
0.067	CCCc1ncc(/C=C2\C(=O)N(C(C)C)c3ccccc32)n1Cc1ccc(C(=O)OC)cc1 [Example 2F, Benzoic acid, 4-[[5-[[2,3-dihydro-1-(1-methylethyl)-2-oxo-1H-indol-3-ylidene]methyl]. -2-propyl-1H-imidazol-1-yl]methyl]-, methyl ester, (Z)]
0.746	CCCc1ncc(C=C2C(=O)N(CCC)c3ccccc32)n1Cc1ccc(C(=O)OC)cc1 [Example 2G, Methyl 4-[[5-[(1,2-dihydro-2-oxo-1-propyl-3H-indol-3-ylidenyl)methyl]-2-propyl-1H-imidazol-1-yl]methyl]benzoate]
0.17	CCCCc1ncc(C=C2C(=O)Nc3ccccc32)n1Cc1ccc(C(=O)O)cc1 [Example 3, 4-[[2-Butyl-5-[(1,12-dihydro-2-oxo-3H-indol-3-ylidene)methyl]-1H-imidazol-1-yl]methyl]benzoic acid]
0.14	CCCCc1nc(Cl)c(/C=C2/C(=O)Nc3ccccc32)n1Cc1ccc(C(=O)O)cc1 [Example 3A, (E)-4-[[2-Butyl-4-chloro-5-[(1,2-dihydro-2-oxo-3H-indol-3-ylidene)]-1H-imidazol-1-yl]methyl]benzoic acid]
0.12	CCCCc1ncc(C=C2C(=O)Nc3c(OC)cccc32)n1Cc1ccc(C(=O)O)cc1 [Example 3B, 4-[[2-Butyl-5-[(1,2-dihydro-7-methoxy-2-oxo-3H-indol-3-ylidene)methyl]-1H-imidazol-1-yl]methyl]benzoic acid]
0.022	CCCCc1ncc(C=C2C(=O)N(CC(=O)O)c3ccccc32)n1Cc1ccc(C(=O)O)cc1 [Example 3C, 3-[[2-Butyl-1-[(4-carboxyphenyl)methyl]-1H-imidazol-5-yl]methylene]-2,3-dihydro-2-oxo-1H-indole-1-acetic acid]
0.123	CCCCc1ncc(C=C2C(=O)N(O)c3ccccc32)n1Cc1ccc(C(=O)O)cc1 [Example 3F]
0.02	CCCCc1ncc(/C=C2/C(=O)N(CCC(=O)O)c3ccccc32)n1Cc1ccc(C(=O)O)cc1 [Example 3G, 1H-Indole-1-propanoic acid, 3-[[2-butyl-1-[(4-carboxyphenyl)methyl]-1H-imidazol-5-yl]methylene]-2,3-dihydro-2-oxo -, (E)]
0.052	CCCCc1ncc(C=C2C(=O)N(CCCC)c3ccccc32)n1Cc1ccc(C(=O)O)cc1Cl [Example 3H, 4-[[2-butyl-5-[(1-butyl-1,2-dihydro-2-oxo-3H-indol-3-ylidenyl)methyl]-1H-imidazol-1-yl]methyl]-3 chlorobenzoic acid]
0.59	CCCCN1C(=O)/C(=C/c2c(-n3cccc3)nc(CCC)n2Cc2ccc(C(=O)OC)cc2)c2ccccc21 [Example 4, Benzoic acid, 4-[[5-[(1-butyl-2,3-dihydro-2-oxo-1H-indol-3-ylidene)methyl]-2=propyl-4=(1H-pyrrol-1-yl)-1H-imidazol-1-yl]methyl]-, methyl ester, (E)]
0.64	CCCc1nc(-n2cccc2)c(/C=C2/C(=O)N(C)c3ccccc32)n1Cc1ccc(C(=O)OC)cc1 [Example 4A, Benzoic acid, 4-[[5-[(2,3-dihydro-1-methyl-2-oxo-1H-indol-3-ylidene)methyl]-2-propyl-4-(1H-pyrrol-1-yl)-1H-imidazol-1-yl]methyl]-, methyl ester, (E)]
0.095	CCCc1nc(-n2cccc2)c(/C=C2/C(=O)N(CC(=O)OC)c3ccccc32)n1Cc1ccc(C(=O)OC)cc1 [Example 4B, 1H-Indole-1-acetic acid, 2,3-dihydro-3-[[1-[[4-(methoxycarbonyl)phenyl]methyl]-2-propyl-4-(1H-pyrrol-1-yl)-1H-imidazol-5-yl]methylene]-2-oxo-, methyl ester, (E)]
0.358	CCCCc1ncc(C=C2C(=O)N(CCCC)c3ccccc32)n1Cc1ccc(C(=O)OC)cc1 [Example 4C, Benzoic acid, 4-[[2-butyl-5-[(1-butyl-2,3-dihydro-2-oxo-1H-indol-3-ylidene)methyl]-1H-imidazol-1-yl]methyl]-, methyl ester]
0.256	CCCCc1ncc(/C=C2/C(=O)N(Cc3ccc(Cl)cc3)c3ccccc32)n1Cc1ccc(C(=O)O)cc1 [Example 4F, Benzoic acid, 4-[[2-butyl-5-[[1-[(4-chlorophenyl)methyl]-2,3-dihydro-2-oxo-1H-indol-3-ylidene]methyl]-1H-imidazol-1-yl]methyl]-, (E)]
0.064	CCCCc1ncc(C=C2C(=O)N(OCC(=O)OC)c3ccccc32)n1Cc1ccc(C(=O)OC)cc1 [Example 4G]
0.226	CCCCc1ncc(C=C2C(=O)N(CC#N)c3ccccc32)n1Cc1ccc(C(=O)OC)cc1 [Example 4H, Benzoic acid, 4-[[2-butyl-5-[[1-(cyanomethyl)-2,3-dihydro-2-oxo-1H-indol-3-ylidene]methyl]-1H-imidazol-1-yl]methyl]-, methyl ester, (E)]
0.686	CCCc1ncc(/C=C2\C(=O)N(CC(=O)OC)c3cccc(C)c32)n1Cc1ccc(C(=O)OC)cc1 [Example 4J, Methyl (Z)-2,3-dihydro-3-[[3-[[4-methoxycarbonylphenyl]methyl]-2-propyl-3H-imidazol-4-yl]methylene]-4-methyl-2-oxo-1H-indole-1-acetate]
0.11	CCCCc1ncc(C=C2C(=O)N(CCCC)c3ccccc32)n1Cc1ccc(C(=O)OC)cc1Cl [Example 4K, Methyl 4-[[2-butyl-5-[(1-butyl-1,2-dihydro-2-oxo-3H-indol-3-yliden)methyl]-1H-imidazolyl]methyl]-3-chlorobenzoate]
0.094	CCCCc1ncc(C=C2C(=O)N(Cc3nn[nH]n3)c3ccccc32)n1Cc1ccc(C(=O)OC)cc1 [Example 5, Benzoic acid, 4-[[2-butyl-5-[[2,3-dihydro-2-oxo-1-(1H-tetrazol-5-ylmethyl)-1H-indol-3-ylidene]methyl]-1H-imidazol-1-yl]methyl]-, methyl ester, (E)]
0.025	CCCCc1ncc(C=C2C(=O)N(CC(=O)OC)c3ccccc32)n1Cc1ccc(-c2nn[nH]n2)cc1 [Example 6, 1H-Indole-1-acetic acid, 3-[[2-butyl-1-[[4-(1H-tetrazol-5-yl)phenyl]methyl]-1H-imidazol-5yl]methylene]-2,3-dihydro-2-oxo-, methyl ester]
0.012	CCCCc1ncc(C=C2C(=O)N(CC(=O)OCC)c3ccccc32)n1Cc1ccc(-c2nnn[nH]2)cc1 [Example 6A, 1H-Indole-1-acetic acid, 3-[[2-butyl-1-[[4-(1H-tetrazol-5-yl)phenyl]methyl]-1H-imidazol-5yl]methylene]-2,3-dihydro-2-oxo-, ethyl ester]
0.0057	CCCCc1ncc(C=C2C(=O)N(CC(=O)O)c3ccccc32)n1Cc1ccc(-c2nnn[nH]2)cc1 [Example 7, 3-[[2-butyl-3-[[4-(1H-tetrazol-5-yl)phenyl]methyl]-3H-imidazol-4-yl]methylene]-2,3-dihydro-2-oxo-1H-indole-1-acetic acid]
0.047	CCCc1ncc(/C=C2\C(=O)N(CC(=O)OC)C(=O)c3ccccc32)n1Cc1ccc(C(=O)OC)cc1 [Example 8, 2(1H)-Isoquinolineacetic acid, 3,4-dihydro-4-[[1-[[4-(methoxycarbonyl)phenyl]methyl]-2-propyl-1H-imidazol-5-yl]methylene]-1,3-dioxo-, methyl ester, (Z)]
0.098	CCCc1ncc(/C=C2/C(=O)N(CC(=O)O)c3ccccc32)n1Cc1ccc(C(=O)O)cc1 [Example 9, (E)-3-[[3-[(4-carboxyphenyl)methyl]-2-propyl-3H-imidazol-4-yl]methylene]-2,3-dihydro-2-oxo-1H-indole-1-acetic acid]

Compound	IC50 [µM]
CCCc1ncc(C=C2C(=O)N(CCC)c3ccccc32)n1Cc1ccc(C(=O)O)cc1 [Example 3I, 4-[[5-[(1,2-dihydro-2-oxo-1-propyl-3H-indol-3-ylidenyl)methyl]-2-propyl-1H-imidazol-1-yl]methyl]benzoic acid]	0.14
